This passage reports IC50 results from ChEMBL document CHEMBL1124592, “In vitro metabolic transformations of vinblastine: oxidations catalyzed by human ceruloplasmin” (J Med Chem, 1989).

≈ marks a conversion by molar mass, not a printed value.

The assay deals with CCRF-CEM. The experiment in a line: Inhibition against […]-T-Cell leukemic cell line. It is filed as functional, cell-based. The following applies: Homo sapiens.

In turn, `CC[C@]12CN3CCc4c([nH]c5ccccc45)[C@@](C(=O)OC)(c4cc5c(cc4OC)N(C)[C@H]4[C@@](O)(C(=O)OC)[C@H](OC(C)=O)[C@]6(CC)C=CCN7CC[C@]54[C@@H]76)C[C@@H](C3)[C@H]1O2.CC[C@]12CN3CCc4c([nH]c5ccccc45)[C@@](C(=O)OC)(c4cc5c(cc4OC)N(C)[C@H]4[C@@](O)(C(=O)OC)[C@H](OC(C)=O)[C@]6(CC)C=CCN7CC[C@]54[C@@H]76)C[C@@H](C3)[C@H]1O2.O=S(=O)(O)O` [VINLEUROSINE SULFATE] returned an IC50 of 0.4 µg/mL.

`CC[C@]1(O)C[C@@H]2CN(CCc3c([nH]c4ccccc34)[C@@](C(=O)OC)(c3cc4c(cc3OC)N(C)[C@H]3[C@@](O)(C(=O)OC)[C@H](OC(C)=O)[C@]5(CC)C=CCN6CC[C@]43[C@@H]65)C2)C1` [VINBLASTINE] showed an IC50 of 0.1 µg/mL (≈ 0.123 µM).

On to `CCC(=O)CC1CN(C=O)CCc2c([nH]c3ccccc23)[C@@](C(=O)OC)(c2cc3c(cc2OC)N(C)C2C4(C(=O)OC)OC5C=CN6CCC32C6[C@]5(CC)C4OC(C)=O)C1` (stereo not given in full), for which the IC50 came out at 14 µg/mL (≈ 17 µM). On to `CC[C@]1(O)C[C@H]2CN(CCc3c([nH]c4ccccc34)[C@@](C(=O)OC)(c3cc4c(cc3OC)N(C=O)[C@H]3[C@@](O)(C(=O)OC)[C@H](OC(C)=O)[C@]5(CC)C=CCN6CC[C@]43[C@@H]65)C2)C1` [VINCRISTINE], for which half-maximal inhibition (IC50) was put at 0.025 µg/mL (≈ 0.0303 µM). `CCC(=O)C[C@@H]1CN(C=O)CCc2c([nH]c3ccccc23)[C@@](C(=O)OC)(c2cc3c(cc2OC)N(C)[C@H]2[C@@](O)(C(=O)OC)[C@H](OC(C)=O)[C@]4(CC)C=CCN5CC[C@]32[C@@H]54)C1`: the IC50 worked out at 7.7 µg/mL (≈ 9.33 µM).
